± gives the expanded uncertainty stated by the source.
Assay: wn = mass fraction of the nth substance listed
Settings: Liquid; for mass density: Vibrating tube method; for viscosity: Falling or rolling sphere viscometry

CC(C)Cc1ccccc1 [(2-methylpropyl)benzene] + c1ccc2c(c1)CCCC2
Settings | mass density [kg/m3] | viscosity [mPa·s]
293.15 K, 100 kPa, w2 = 0.5 | 907.9 ± 1 | –
293.15 K, 2000 kPa, w2 = 0.5 | 909.1 ± 1 | –
293.15 K, 4000 kPa, w2 = 0.5 | 910.3 ± 1 | –
293.15 K, 6000 kPa, w2 = 0.5 | 911.6 ± 1 | –
293.15 K, 8000 kPa, w2 = 0.5 | 913 ± 1 | –
293.15 K, 10000 kPa, w2 = 0.5 | 914.3 ± 1 | –
293.15 K, 12000 kPa, w2 = 0.5 | 915.4 ± 1 | –
293.15 K, 14000 kPa, w2 = 0.5 | 916.6 ± 1 | –
293.15 K, 16000 kPa, w2 = 0.5 | 917.7 ± 1 | –
293.15 K, 18000 kPa, w2 = 0.5 | 918.8 ± 1 | –
293.15 K, 20000 kPa, w2 = 0.5 | 920.1 ± 1 | –
295.65 K, 100 kPa, w2 = 0.5 | 905.7 ± 1 | –
295.65 K, 2000 kPa, w2 = 0.5 | 906.8 ± 1 | –
295.65 K, 4000 kPa, w2 = 0.5 | 908.1 ± 1 | –
295.65 K, 6000 kPa, w2 = 0.5 | 909.3 ± 1 | –
295.65 K, 8000 kPa, w2 = 0.5 | 910.6 ± 1 | –
295.65 K, 10000 kPa, w2 = 0.5 | 911.9 ± 1 | –
295.65 K, 12000 kPa, w2 = 0.5 | 913.1 ± 1 | –
295.65 K, 14000 kPa, w2 = 0.5 | 914.3 ± 1 | –
295.65 K, 16000 kPa, w2 = 0.5 | 915.4 ± 1 | –
295.65 K, 18000 kPa, w2 = 0.5 | 916.6 ± 1 | –
295.65 K, 20000 kPa, w2 = 0.5 | 917.7 ± 1 | –
298.15 K, 100 kPa, w2 = 0.48 | 901.3 ± 1 | –
298.15 K, 100 kPa, w2 = 0.49 | 902.5 ± 1 | –
298.15 K, 100 kPa, w2 = 0.5 | 903.6 ± 1 | 1.33 ± 0.05
298.15 K, 100 kPa, w2 = 0.51 | 905 ± 1 | –
298.15 K, 100 kPa, w2 = 0.52 | 906 ± 1 | –
298.15 K, 2000 kPa, w2 = 0.48 | 902.6 ± 1 | –
298.15 K, 2000 kPa, w2 = 0.49 | 903.8 ± 1 | –
298.15 K, 2000 kPa, w2 = 0.5 | 904.7 ± 1 | –
298.15 K, 2000 kPa, w2 = 0.51 | 906.2 ± 1 | –
298.15 K, 2000 kPa, w2 = 0.52 | 907.3 ± 1 | –
298.15 K, 4000 kPa, w2 = 0.48 | 904 ± 1 | –
298.15 K, 4000 kPa, w2 = 0.49 | 905.1 ± 1 | –
298.15 K, 4000 kPa, w2 = 0.5 | 906.1 ± 1 | 1.37 ± 0.06
298.15 K, 4000 kPa, w2 = 0.51 | 907.6 ± 1 | –
298.15 K, 4000 kPa, w2 = 0.52 | 908.8 ± 1 | –
298.15 K, 6000 kPa, w2 = 0.48 | 905.3 ± 1 | –
298.15 K, 6000 kPa, w2 = 0.49 | 906.4 ± 1 | –
298.15 K, 6000 kPa, w2 = 0.5 | 907.5 ± 1 | –
298.15 K, 6000 kPa, w2 = 0.51 | 908.8 ± 1 | –
298.15 K, 6000 kPa, w2 = 0.52 | 910 ± 1 | –
298.15 K, 8000 kPa, w2 = 0.48 | 906.6 ± 1 | –
298.15 K, 8000 kPa, w2 = 0.49 | 907.7 ± 1 | –
298.15 K, 8000 kPa, w2 = 0.5 | 908.8 ± 1 | –
298.15 K, 8000 kPa, w2 = 0.51 | 910.1 ± 1 | –
298.15 K, 8000 kPa, w2 = 0.52 | 911.2 ± 1 | –
298.15 K, 10000 kPa, w2 = 0.48 | 907.8 ± 1 | –
298.15 K, 10000 kPa, w2 = 0.49 | 909 ± 1 | –
298.15 K, 10000 kPa, w2 = 0.5 | 910.1 ± 1 | 1.43 ± 0.06
298.15 K, 10000 kPa, w2 = 0.51 | 911.2 ± 1 | –
298.15 K, 10000 kPa, w2 = 0.52 | 912.4 ± 1 | –
298.15 K, 12000 kPa, w2 = 0.48 | 909 ± 1 | –
298.15 K, 12000 kPa, w2 = 0.49 | 910.2 ± 1 | –
298.15 K, 12000 kPa, w2 = 0.5 | 911.3 ± 1 | –
298.15 K, 12000 kPa, w2 = 0.51 | 912.5 ± 1 | –
298.15 K, 12000 kPa, w2 = 0.52 | 913.6 ± 1 | –
298.15 K, 14000 kPa, w2 = 0.48 | 910.2 ± 1 | –
298.15 K, 14000 kPa, w2 = 0.49 | 911.5 ± 1 | –
298.15 K, 14000 kPa, w2 = 0.5 | 912.5 ± 1 | –
298.15 K, 14000 kPa, w2 = 0.51 | 913.7 ± 1 | –
298.15 K, 14000 kPa, w2 = 0.52 | 914.8 ± 1 | –
298.15 K, 16000 kPa, w2 = 0.48 | 911.4 ± 1 | –
298.15 K, 16000 kPa, w2 = 0.49 | 912.6 ± 1 | –
298.15 K, 16000 kPa, w2 = 0.5 | 913.7 ± 1 | –
298.15 K, 16000 kPa, w2 = 0.51 | 915 ± 1 | –
298.15 K, 16000 kPa, w2 = 0.52 | 916 ± 1 | –
298.15 K, 18000 kPa, w2 = 0.48 | 912.6 ± 1 | –
298.15 K, 18000 kPa, w2 = 0.49 | 913.7 ± 1 | –
298.15 K, 18000 kPa, w2 = 0.5 | 914.9 ± 1 | –
298.15 K, 18000 kPa, w2 = 0.51 | 916.1 ± 1 | –
298.15 K, 18000 kPa, w2 = 0.52 | 917.1 ± 1 | –
298.15 K, 20000 kPa, w2 = 0.48 | 913.8 ± 1 | –
298.15 K, 20000 kPa, w2 = 0.49 | 914.9 ± 1 | –
298.15 K, 20000 kPa, w2 = 0.5 | 916.1 ± 1 | –
298.15 K, 20000 kPa, w2 = 0.51 | 917.2 ± 1 | –
298.15 K, 20000 kPa, w2 = 0.52 | 918.2 ± 1 | –
300.65 K, 100 kPa, w2 = 0.5 | 901.5 ± 1 | –
300.65 K, 2000 kPa, w2 = 0.5 | 902.9 ± 1 | –
300.65 K, 4000 kPa, w2 = 0.5 | 904.2 ± 1 | –
300.65 K, 6000 kPa, w2 = 0.5 | 905.4 ± 1 | –
300.65 K, 8000 kPa, w2 = 0.5 | 906.8 ± 1 | –
300.65 K, 10000 kPa, w2 = 0.5 | 908 ± 1 | –
300.65 K, 12000 kPa, w2 = 0.5 | 909.2 ± 1 | –
300.65 K, 14000 kPa, w2 = 0.5 | 910.4 ± 1 | –
300.65 K, 16000 kPa, w2 = 0.5 | 911.6 ± 1 | –
300.65 K, 18000 kPa, w2 = 0.5 | 912.8 ± 1 | –
300.65 K, 20000 kPa, w2 = 0.5 | 914 ± 1 | –
303.15 K, 100 kPa, w2 = 0.5 | 900 ± 1 | –
303.15 K, 2000 kPa, w2 = 0.5 | 901.3 ± 1 | –
303.15 K, 4000 kPa, w2 = 0.5 | 902.6 ± 1 | –
303.15 K, 6000 kPa, w2 = 0.5 | 904 ± 1 | –
303.15 K, 8000 kPa, w2 = 0.5 | 905.3 ± 1 | –
303.15 K, 10000 kPa, w2 = 0.5 | 906.5 ± 1 | –
303.15 K, 12000 kPa, w2 = 0.5 | 907.8 ± 1 | –
303.15 K, 14000 kPa, w2 = 0.5 | 909 ± 1 | –
303.15 K, 16000 kPa, w2 = 0.5 | 910.3 ± 1 | –
303.15 K, 18000 kPa, w2 = 0.5 | 911.4 ± 1 | –
303.15 K, 20000 kPa, w2 = 0.5 | 912.6 ± 1 | –
